Test results reported in patent US6440451B1, “Use of crataegus formulations for prophylaxis and treatment of neoplastic diseases” (Nativia Health Products GmbH, priority 1998, dated 2002).

Key:
[1] = system: SKMEL-2; experiment: SRB assay, SK-MEL-2 malignant melanoma cells; format: cell-based, human; details: for % control / dE mean: SKMEL-2, 72 hours
Description: (§1) In the context of the present invention, five human tumour cell lines (four carcinoma cell lines, one sarcoma cell line) and one animal carcinoma cell line (cf. tab. 2) were investigated as examples. All the cell lines were kept in permanent cell culture in cell culture bottles with 75 cm^2 base area. They were subjected to passage once a week, and the medium was changed twice a week. At the start of the experiment (day 0), the cells were sown in cell culture plates with 96 depressions (96 well plates) in 100 μl medium per well (=0.32 cm^2) in each case, with the density shown in table 2. On days 1 and 4, the medium of all the cells was changed, and after the change of medium on day 4, incubation with the active substances (Crataegus formulations, Gentiana, superoxide dismutase, 5-fluorouracil and methotrexate; see below) or the solvents as controls started immediately. The effects of the active substances were measured on day 7 (that is to say after incubation for 72 hours) with two different methods, the so-called MTT assay and the SRB assay (see tab. 2).
(§2) SRB assay: The SRB assay (P. Skehan et al., J. Natl. Cancer Inst. 82 (1990) 1107-1112) is based on binding of the dyestuff sulphorhodamine B (SRB) to basic proteins. The principle specifies fixing, with the aid of trichloroacetic acid, the tumour cells adhering to the culture vessel base and thereafter dyeing their protein. This dyeing is then also determined photometrically. Non-living cells are distinguished in that they first detach themselves from the cell culture base and then dissolve in the culture medium. This method therefore also measures only the living cells in a cell culture. The cells growing in 100 μl medium are first fixed with 25 μl 50% cold trichloroacetic acid at 4° C. After incubation for one hour at 4° C., all the non-fixed constituents are removed and those which remain are rinsed five times with water. After drying in air, 200 μl 0.4% sulphorhodamine B solution in 1% acetic acid or, in the photometric controls, only acetic acid,. are added. After incubation for 30 minutes at room temperature, the dyestuff solution is poured out and the culture is rinsed four times with 1% acetic acid. After removal of the rinsing solution and drying, the dyestuff adhering to the basic proteins is dissolved in 100 μl 10 mM tris-base (tris(hydroxymethyl)aminomethane) in the course of 5 minutes. The extinction was measured at 570 nm or, if the OD (optical density) lay outside the linear range, at 492 nm (for CMT-93 cells). For the evalution, ΔE was determined by subtraction of the extinction in the controls with acetic acid from the measurement values with SRB.
(§3) The data shown in table 3 are the means of three individual measurements. ΔE measured under the action of the various test substances has additionally been shown in percent of ΔE of the particular solvent controls. The control cells, which received no test substances (Crataegus formulations) but only medium or solvent, reached 100% of their density (number) as defined at the measurement time (day 7). At the time of addition of the test substance (day 4), the cells had already reached approx. 50% of the density, and therefore also 50% of the ΔE to be measured.

[2] = system: SAOS-2; experiment: MTT assay, SAOS-2 osteosarcoma cells; format: cell-based, human; details: 72 hours
Description: as §1
(§4) MTT assay: The MTT assay (T. Mossman, J. Immunoll. Methods 65 (1983) 55-63) is based on measurement of the metabolic activity of living cells. The substance 3-(4,5-dimethylthiazol-2-yl)-2,5-diphenyltetrazolium bromide (MTT), which the cells reduce intracellularly to the water-insoluble dyestuff formazan, is made available to the cells. This reduction takes place only in metabolically active cells, so that this assay detects exclusively living cells. At the measurement time, in each case 100 μl MTT solution (4 mg/ml PBS, phosphate buffered saline) are added to the cells in 100 μl medium. Incubation for two hours at 37° C. then takes place. Thereafter, the medium is sucked off, so that the dyed living cells adhering to the base of the culture flask remain. These and the dyestuff are dissolved with 100 μl DMSO (dimethylsulphoxide) in the course of 5 minutes, with vigorous shaking. The extinction is then determined photometrically at 570 nm. Its linearity in the range used here, and also its correlation to the number of living cells (counted under the microscope) were detected in preliminary experiments. […] For the evaluation, ΔE was determined by subtraction of the extinction in the controls with PBS from the measurement values with MTT.
as §3, with “The control cells, which received no test substances (Crataegus formulations) but only medium or solvent, reached 100% of their density (number) as defined at the measurement time (day 7).” left out

[3] = system: U373MG; experiment: SRB assay, U373MG glioblastoma cells; format: cell-based, human
Description: In the context of the present invention, five human tumour cell lines (four carcinoma cell lines, one sarcoma cell line) and one animal carcinoma cell line (cf. tab. 2) were investigated as examples. All the cell lines were kept in permanent cell culture in cell culture bottles with 75 cm^2 base area. They were subjected to passage once a week, and the medium was changed twice a week. At the start of the experiment (day 0), the cells were sown in cell culture plates with 96 depressions (96 well plates) in 100 μl medium per well (=0.32 cm^2) in each case, with the density shown in table 2. […] [table] SRB assay: The SRB assay (P. Skehan et al., J. Natl. Cancer Inst. 82 (1990) 1107-1112) is based on binding of the dyestuff sulphorhodamine B (SRB) to basic proteins. The principle specifies fixing, with the aid of trichloroacetic acid, the tumour cells adhering to the culture vessel base and thereafter dyeing their protein. This dyeing is then also determined photometrically. Non-living cells are distinguished in that they first detach themselves from the cell culture base and then dissolve in the culture medium. This method therefore also measures only the living cells in a cell culture. The cells growing in 100 μl medium are first fixed with 25 μl 50% cold trichloroacetic acid at 4° C. After incubation for one hour at 4° C., all the non-fixed constituents are removed and those which remain are rinsed five times with water. After drying in air, 200 μl 0.4% sulphorhodamine B solution in 1% acetic acid or, in the photometric controls, only acetic acid,. are added. […] For the evalution, ΔE was determined by subtraction of the extinction in the controls with acetic acid from the measurement values with SRB. The data shown in table 3 are the means of three individual measurements. ΔE measured under the action of the various test substances has additionally been shown in percent of ΔE of the particular solvent controls. […] At the time of addition of the test substance (day 4), the cells had already reached approx. 50% of the density, and therefore also 50% of the ΔE to be measured.

[4] = system: Caki-1; experiment: MTT assay, Caki-1 kidney carcinoma cells; format: cell-based, human; details: 72 hours
Description: as §1, §4
as §3, with “The control cells, which received no test substances (Crataegus formulations) but only medium or solvent, reached 100% of their density (number) as defined at the measurement time (day 7).” left out

[5] = system: human neuroblastoma and breast carcinoma cells; details: Fotsis et al., Cancer Research 57 (1997); cited from earlier work
[6] = system: human fibroblasts, keratinocytes and endothelial cells; details: Fotsis et al., Cancer Research 57 (1997); cited from earlier work
[7] = system: CMT-93; experiment: SRB assay, CMT-93 rectum carcinoma cells; format: cell-based, mouse; details: 72 hours
Description: as §1
as §2, with “After incubation for 30 minutes at room temperature, the dyestuff solution is poured out and the culture is rinsed four times with 1% acetic acid. After removal of the rinsing solution and drying, the dyestuff adhering to the basic proteins is dissolved in 100 μl 10 mM tris-base (tris(hydroxymethyl)aminomethane) in the course of 5 minutes.” left out
as §3, with “The control cells, which received no test substances (Crataegus formulations) but only medium or solvent, reached 100% of their density (number) as defined at the measurement time (day 7).” left out

[8] = system: HT-29; experiment: MTT assay, HT-29 colon carcinoma cells; format: cell-based, human; details: 72 hours
Description: as §1, §4
as §3, with “The control cells, which received no test substances (Crataegus formulations) but only medium or solvent, reached 100% of their density (number) as defined at the measurement time (day 7).” left out

[9] = system: tumour cell lines investigated; experiment: MTT/SRB assays, statements on all tumour cell lines investigated; format: cell-based; details: table 3
Description: as §1, with “On days 1 and 4, the medium of all the cells was changed, and after the change of medium on day 4, incubation with the active substances (Crataegus formulations, Gentiana, superoxide dismutase, 5-fluorouracil and methotrexate; see below) or the solvents as controls started immediately.” left out
MTT assay: The MTT assay (T. Mossman, J. Immunoll. Methods 65 (1983) 55-63) is based on measurement of the metabolic activity of living cells. […] The extinction is then determined photometrically at 570 nm. Its linearity in the range used here, and also its correlation to the number of living cells (counted under the microscope) were detected in preliminary experiments. […] For the evaluation, ΔE was determined by subtraction of the extinction in the controls with PBS from the measurement values with MTT. […]

[10] = U373MG, medium, 45 μg/ml, 72 hours
[11] = solvent H2O 0.10% final conc, 1 μg/ml

Compound: CN(Cc1cnc2nc(N)nc(N)c2n1)c1ccc(C(=O)N[C@@H](CCC(=O)O)C(=O)O)cc1 [Methotrexate]
- % control ([1]; medium, 45 μg/ml): 119%
- dE mean ([1]; medium, 45 μg/ml): 2.429
- cytostatic/cytotoxic action on SKMEL-2 cells, in words ([1]; table 3): resistance
- % control ([2]; medium, 45 μg/ml): 41%
- dE mean ([2]; medium, 45 μg/ml): 0.259
- % control [3, 10]: 135%
- dE mean [3, 10]: 1.449
- cytostatic/cytotoxic action on U373MG cells, in words ([3]; table 3): resistance
- % control ([4]; medium, 45 μg/ml): 47%
- dE mean ([4]; medium, 45 μg/ml): 0.679

Compound: O=c1c(O)c(-c2ccc(O)c(O)c2)oc2cc(O)cc(O)c12 [quercetin]
- effect on proliferation of human neuroblastoma and breast carcinoma cells [5]: inhibiting effect
- effect on proliferation of human fibroblasts, keratinocytes and endothelial cells [6]: inhibits the proliferation

Compound: O=c1cc(-c2ccc(O)c(O)c2)oc2cc(O[C@@H]3O[C@H](CO)[C@@H](O)[C@H](O)[C@H]3O)cc(O)c12 [luteolin-7-glucoside]
- effect on proliferation of human neuroblastoma and breast carcinoma cells [5]: inhibiting effect
- effect on proliferation of human fibroblasts, keratinocytes and endothelial cells [6]: inhibits the proliferation

Compound: O=c1[nH]cc(F)c(=O)[nH]1 [5-Fluorouracil]
- % control ([7]; medium, 25 μg/ml): 63%
- dE mean ([7]; medium, 25 μg/ml): 0.191
- % control ([8]; medium, 25 μg/ml): 53%
- dE mean ([8]; medium, 25 μg/ml): 0.973

Compound: Superoxide dismutase: Superoxide dismutase from bovine erythrocytes, superoxide scavenger comparison
- % control [1, 11]: 94%
- dE mean [1, 11]: 1.340
- % control [2, 11]: 98%
- dE mean [2, 11]: 0.564
- cytostatic/cytotoxic action on the cell lines investigated, in words [9]: no cytostatic or cytotoxic effects
- % control [7, 11]: 92%
- dE mean [7, 11]: 0.326
- % control [8, 11]: 90%
- dE mean [8, 11]: 1.725
- % control [4, 11]: 97%
- dE mean [4, 11]: 1.442
